Experiments:
[1] = system: antibodies from patients with Morbus Alzheimer directed to the β2 Adrenoceptor; test: Peptide neutralization of the antibody-mediated increase of the beating rate (neonatal rat cardiomyocyte bioassay); format: cell-based, human; settings: FIG. 3; overlapping epitope peptides of loop 1 of the β2-AR co-incubated with patient immunoglobulins (n=6)
Procedure: (§1) Preparation of the immunoglobulin fraction.
(§2) The buffer was changed five times during dialysis.
(§3) After the dialysis, the IgG fractions feature a concentration of 10-15 mg/ml, a maximum of 10 μg/ml of which are specific receptor antibodies. 50 μl of this IgG solution are pre-incubated with the peptides with the following concentration of peptides: 5 μl of a buffered solution of 100 μg/ml per 50 μl IgG solution. This mixture is pre-incubated at room temperature for 30 minutes and subsequently filled into the cell culture vials, after the former nutrient solution has been removed by pipet. The amount of the medium is 2 ml. The final concentration therefore is of […] for the IgG and 0.5 μg for the peptides. If the molecular weight of the peptide (10 mer) is set with 1 KD and that of the IgG is set with 150 KD, there is an excess of […].
(§4) For the neutralization experiments, synthetic peptides corresponding to the sequence of the three extracellular loops of the human β2 AR or α1A-AR was added in excess (0.5 μg in 50 μl) to 50 μl of the immunoglobulin fraction. The mixtures were shaken and incubated at room temperature for 1 h. The 100-μl samples were then added to neonatal rat heart muscle cells cultured in 2 ml medium to a final dilution of 1:40. The beating rate was counted for 15 s, about 60 min after the addition of the peptide/immunoglobulin mixture. […]

α1 adrenergic receptor = test: Antagonist block of patient-antibody stimulation of the beating rate of cultured neonatal rat cardiomyocytes; format: cell-based; settings: FIG. 1; prazosin given in addition to ICI 118,551; patient immunoglobulins on rat cardiomyocytes
From the text: as §1, §2

[2] = system: antibodies from patients with Morbus Alzheimer directed to the α1A Adrenoceptor; test: Peptide neutralization of the antibody-mediated increase of the beating rate (neonatal rat cardiomyocyte bioassay); format: cell-based, human; settings: FIG. 6; overlapping peptides of the second extracellular loop of the α1A Adrenoceptor co-incubated with patient immunoglobulins (n=5)
Procedure: as §1, §2, §3, §4

FGNFWCE
neutralisation of antibody mediated increase of the beating rate [1]: neutralisation

COc1cc2nc(N3CCN(C(=O)c4ccco4)CC3)nc(N)c2cc1OC [prazosin]
inhibition of cellular activity of contraction (α1 adrenergic receptor): more effective inhibition

APEDET [peptide embedded in the second extracellular loop of the α1A Adrenoceptor]
neutralisation of the cellular activity of the immunoglobulins [2]: neutralises
